Converted amounts (≈) assume the structure as drawn. Read-outs that look alike come from different tables or passages of the source.
Assays:
[1] = tested on: S. aureus; test: MIC assay, S. aureus; format: cell-based, Staphylococcus aureus
[2] = tested on: E. faecalis; test: MIC assay, E. faecalis; format: cell-based, Enterococcus faecalis
[3] = tested on: E coli; test: MIC assay, E coli; format: cell-based
[4] = tested on: S. pneumo.; test: MIC assay, S. pneumo.; format: cell-based, Streptococcus pneumoniae
[5] = tested on: H. flu; format: cell-based, H. influenza

COC1C=COC2(C)Oc3c(C)c(O)c4c(=O)c(c5oc6cc(N7CCNCC7)cc(O)c6nc-5c4c3C2=O)NC(=O)C(C)=CC=CC(C)C(O)C(C)C(O)C(C)C(O)C1C (stereo not drawn) [Compound 104]
MIC (μg/mL) S. aureus [1]: 0.008 µg/mL (≈ 0.00949 µM)
MIC (μg/mL) E. faecalis [2]: 0.06 µg/mL (≈ 0.0712 µM)
MIC (μg/mL) E coli [3]: 4 µg/mL (≈ 4.75 µM)
MIC (μg/mL) S. pneumo. [4]: 0.002 µg/mL (≈ 0.00237 µM)
MIC (μg/mL) H. flu [5]: 0.12 µg/mL (≈ 0.142 µM)

CCOc1c(N2CCN(CC3CC3)CC2)ccc2nc3c4c5c6c(C)c(O)c4c(=O)c(c-3oc12)NC(=O)/C(C)=C\C=C\[C@H](C)[C@H](O)[C@@H](C)[C@@H](O)[C@@H](C)[C@H](O)[C@H](C)[C@@H](OC)/C=C/O[C@@](C)(O6)C5=O [Compound 105]
MIC (μg/mL) S. aureus [1]: 0.03 µg/mL (≈ 0.0324 µM)
MIC (μg/mL) E. faecalis [2]: 0.5 µg/mL (≈ 0.54 µM)
MIC (μg/mL) E coli [3]: >8 µg/mL
MIC (μg/mL) S. pneumo. [4]: 0.015 µg/mL (≈ 0.0162 µM)
MIC (μg/mL) H. flu ([5]; H. flu): 1 µg/mL (≈ 1.08 µM)

CO[C@H]1/C=C/O[C@@]2(C)Oc3c(C)c(O)c4c(=O)c(c5oc6c(F)c(N7CCN(CC(C)C)CC7)ccc6nc-5c4c3C2=O)NC(=O)/C(C)=C\C=C\[C@H](C)[C@H](O)[C@@H](C)[C@@H](O)[C@@H](C)[C@H](O)[C@@H]1C [Compound 106]
MIC (μg/mL) S. aureus [1]: 0.03 µg/mL (≈ 0.0333 µM)
MIC (μg/mL) E. faecalis [2]: 0.5 µg/mL (≈ 0.555 µM)
MIC (μg/mL) E coli [3]: 8 µg/mL (≈ 8.88 µM)
MIC (μg/mL) S. pneumo. [4]: 0.008 µg/mL (≈ 0.00888 µM)
MIC (μg/mL) H. flu ([5]; H. flu): 0.5 µg/mL (≈ 0.555 µM)

COC1C=COC2(C)Oc3c(C)c(O)c4c(=O)c(c5oc6cc(N7CCN(C(=O)C8CC8)CC7)cc(O)c6nc-5c4c3C2=O)NC(=O)C(C)=CC=CC(C)C(O)C(C)C(O)C(C)C(O)C1C (stereo not drawn) [Compound 107]
MIC (μg/mL) S. aureus [1]: 0.015 µg/mL (≈ 0.0165 µM)
MIC (μg/mL) E. faecalis [2]: 0.5 µg/mL (≈ 0.549 µM)
MIC (μg/mL) E coli [3]: 8 µg/mL (≈ 8.78 µM)
MIC (μg/mL) S. pneumo. [4]: 0.004 µg/mL (≈ 0.00439 µM)
MIC (μg/mL) H. flu ([5]; H. flu): 0.25 µg/mL (≈ 0.274 µM)

CCc1cc2nc3c4c5c6c(C)c(O)c4c(=O)c(c-3oc2cc1N1CCCCC1)NC(=O)/C(C)=C\C=C\[C@H](C)[C@H](O)[C@@H](C)[C@@H](O)[C@@H](C)[C@H](O)[C@H](C)[C@@H](OC)/C=C/O[C@@](C)(O6)C5=O [Compound 108]
MIC (μg/mL) S. aureus [1]: 1 µg/mL (≈ 1.17 µM)
MIC (μg/mL) E. faecalis [2]: 4 µg/mL (≈ 4.68 µM)
MIC (μg/mL) E coli [3]: 1 µg/mL (≈ 1.17 µM)
MIC (μg/mL) S. pneumo. [4]: 0.12 µg/mL (≈ 0.141 µM)
MIC (μg/mL) H. flu ([5]; H. flu): 2 µg/mL (≈ 2.34 µM)

CO[C@H]1/C=C/O[C@@]2(C)Oc3c(C)c(O)c4c(=O)c(c5oc6cc(N7CCC(C(N)=O)CC7)cc(O)c6nc-5c4c3C2=O)NC(=O)/C(C)=C\C=C\[C@H](C)[C@H](O)[C@@H](C)[C@@H](O)[C@@H](C)[C@H](O)[C@@H]1C [Compound 109]
MIC (μg/mL) S. aureus [1]: 0.03 µg/mL (≈ 0.0339 µM)
MIC (μg/mL) E. faecalis [2]: 1 µg/mL (≈ 1.13 µM)
MIC (μg/mL) E coli [3]: >8 µg/mL
MIC (μg/mL) S. pneumo. [4]: 0.002 µg/mL (≈ 0.00226 µM)
MIC (μg/mL) H. flu ([5]; H. flu): 0.25 µg/mL (≈ 0.282 µM)

CCOC(=O)C1CCN(c2cc(O)c3nc4c5c6c7c(C)c(O)c5c(=O)c(c-4oc3c2)NC(=O)/C(C)=C\C=C\[C@H](C)[C@H](O)[C@@H](C)[C@@H](O)[C@@H](C)[C@H](O)[C@H](C)[C@@H](OC)/C=C/O[C@@](C)(O7)C6=O)CC1 [Compound 110]
MIC (μg/mL) S. aureus [1]: 0.004 µg/mL (≈ 0.00438 µM)
MIC (μg/mL) E. faecalis [2]: 0.5 µg/mL (≈ 0.547 µM)
MIC (μg/mL) E coli [3]: >8 µg/mL
MIC (μg/mL) S. pneumo. [4]: 0.008 µg/mL (≈ 0.00875 µM)
MIC (μg/mL) H. flu ([5]; H. flu): 0.12 µg/mL (≈ 0.131 µM)

COC1C=COC2(C)Oc3c(C)c(O)c4c(=O)c(c5oc6cc(N7CCC(F)CC7)ccc6nc-5c4c3C2=O)NC(=O)C(C)=CC=CC(C)C(O)C(C)C(O)C(C)C(O)C1C (stereo not drawn) [Compound 111]
MIC (μg/mL) S. aureus [1]: 0.03 µg/mL (≈ 0.0355 µM)
MIC (μg/mL) E. faecalis [2]: 0.5 µg/mL (≈ 0.592 µM)
MIC (μg/mL) E coli [3]: 8 µg/mL (≈ 9.48 µM)
MIC (μg/mL) S. pneumo. [4]: 0.008 µg/mL (≈ 0.00948 µM)
MIC (μg/mL) H. flu ([5]; H. flu): 0.12 µg/mL (≈ 0.142 µM)

COC1C=COC2(C)Oc3c(C)c(O)c4c(=O)c(c5oc6cc(N7CCC(F)(F)CC7)ccc6nc-5c4c3C2=O)NC(=O)C(C)=CC=CC(C)C(O)C(C)C(O)C(C)C(O)C1C (stereo not drawn) [Compound 112]
MIC (μg/mL) S. aureus [1]: 0.03 µg/mL (≈ 0.0348 µM)
MIC (μg/mL) E. faecalis [2]: 1 µg/mL (≈ 1.16 µM)
MIC (μg/mL) E coli [3]: >8 µg/mL
MIC (μg/mL) S. pneumo. [4]: 0.015 µg/mL (≈ 0.0174 µM)
MIC (μg/mL) H. flu ([5]; H. flu): 0.25 µg/mL (≈ 0.29 µM)

COC1C=COC2(C)Oc3c(C)c(O)c4c(=O)c(c5oc6cc(N7CC(C)OC(C)C7)cc(O)c6nc-5c4c3C2=O)NC(=O)C(C)=CC=CC(C)C(O)C(C)C(O)C(C)C(O)C1C (stereo not drawn) [Compound 114]
MIC (μg/mL) S. aureus [1]: 0.015 µg/mL (≈ 0.0172 µM)
MIC (μg/mL) E. faecalis [2]: 0.25 µg/mL (≈ 0.287 µM)
MIC (μg/mL) E coli [3]: 8 µg/mL (≈ 9.17 µM)
MIC (μg/mL) S. pneumo. [4]: 0.002 µg/mL (≈ 0.00229 µM)
MIC (μg/mL) H. flu ([5]; H. flu): 0.25 µg/mL (≈ 0.287 µM)

COC1C=COC2(C)Oc3c(C)c(O)c4c(=O)c(c5oc6cc(N7CCCC7)c(C7CCCCC7)cc6nc-5c4c3C2=O)NC(=O)C(C)=CC=CC(C)C(O)C(C)C(O)C(C)C(O)C1C (stereo not drawn) [Compound 115]
MIC (μg/mL) S. aureus [1]: 2 µg/mL (≈ 2.24 µM)
MIC (μg/mL) E. faecalis [2]: >8 µg/mL
MIC (μg/mL) E coli [3]: >8 µg/mL
MIC (μg/mL) S. pneumo. [4]: 0.25 µg/mL (≈ 0.28 µM)
MIC (μg/mL) H. flu ([5]; H. flu): 8 µg/mL (≈ 8.95 µM)

COC1C=COC2(C)Oc3c(C)c(O)c4c(=O)c(c5oc6cc(N7CCCC7)c(C)c(C)c6nc-5c4c3C2=O)NC(=O)C(C)=CC=CC(C)C(O)C(C)C(O)C(C)C(O)C1C (stereo not drawn) [Compound 117]
MIC (μg/mL) S. aureus [1]: 0.5 µg/mL (≈ 0.595 µM)
MIC (μg/mL) E. faecalis [2]: 4 µg/mL (≈ 4.76 µM)
MIC (μg/mL) E coli [3]: >8 µg/mL
MIC (μg/mL) S. pneumo. [4]: 0.06 µg/mL (≈ 0.0714 µM)
MIC (μg/mL) H. flu ([5]; H. flu): 1 µg/mL (≈ 1.19 µM)

— US7271165B2, “Rifamycin analogs and uses thereof” (priority 2003, dated 2007)
